Laboratory results: patent US11274131B2, “IgM-mediated receptor clustering and cell modulation” (MAYO FOUNDATION FOR MEDICAL EDUCATION AND RESEARCH, priority 2007, dated 2022)

System: mouse bone marrow-derived DC
Test: Immunoblot of DAP12 and Syk phosphorylation in mouse DC
Type: cell-based
Description: FIG. 6A to 6C is a series of histograms and pictures showing that TREM-2 is recruited into the MTAb-induced cap on mouse DC and expression of TREM-2 is important for MTAb-induced phosphorylation of the adapter DAP-12 and the protein kinase Syk. FIG. 6A: six day cultures of bone marrow-derived mouse DC were differentiated in GM-CSF and IL-4 were tagged with antibodies specific for the class II molecule IA^b (25-9-17-APC) and for TREM-2 (237916-PE) for 15 minutes prior to stimulation with the MTAb B7-DC XAb (open histograms) or with isotype control antibody sHIgM39 (filled histograms). Cells were fixed in 0.1% paraformaldehyde prior to analysis by flow cytometry. FRET between PE and APC was assessed collecting light emitted by APC following excitation of PE with a 488 nm laser. Expression of TREM-2 on the cells was assessed by staining with 237916-PE antibody alone (open histogram) or isotype control antibody (closed histogram, bottom-right panel). For FIG. 6B, mouse bone marrow-derived DC were transduced on day 2 of culture with a retrovirus expressing an […] specific for TREM-2 or a control virus containing a scrambled sequence. On day 5 of culture, the transduced cells were not treated (0′ time), activated with the isotype control antibody sHIgM39, or activated with B7-DC XAb for 5 minutes. DAP12 was immunoprecipitated from cell lysates with antibody MC457, resolved by electrophoresis, and the blotted filters were probed with the phosphotyrosine-specific antibody 4G10. FIG. 6C: the lysates used in the experiments from FIG. 6B were immunoprecipitated with the Syk-specific antibody (4D10) and analyzed by western blot for the presence of phosphotyrosine.
For transducing DC with the virus, 1 ml of supernatant containing the scrambled virus or shDNA containing dominant negative TREM-2 virus was mixed with 2 ml of RPMI. Cytokines were added to a final concentration of 10 ng/ml murine GM-CSF and 1 ng/ml murine IL-4 at day 2 of DC culture. […]
In experiments involving assessment of the phosphorylation status of various protein kinases using whole cell lysate, dendritic cells of mouse or human origin or Jurkat cells were stimulated at the indicated times with control antibody or B7-DC XAb, and were lysed on ice for 10 minutes in 1 ml buffer containing 20 mM Tris-HCl, 40 mM NaCl, 5 mM EDTA, 50 mM NaF, 30 mM Na4P2O7, 0.1% BSA, 1 mM Na3VO4, 1 mM PMSF, 5 μg/ml aprotinin, 10 μg/ml leupeptin, and 1% Triton X-100. […] Tyrosine-phosphorylated proteins were detected using the anti-phosphotyrosine specific antibody, 4G10, followed by goat anti-mouse IgG coupled to Horse Radish Peroxidase (Santa Cruz Biotechnology) and the SuperSignal detection system (Pierce Biotechnology, Rockford, Ill.). […]

Substance: B7-DC XAb: human monoclonal IgM from a Waldenstrom's macroglobulinemia patient that binds and cross-links B7-DC on DC
- phosphorylation of DAP12 and Syk (DC transduced with scrambled shDNA): proceeded in the same manner
- phosphorylation of DAP12 and Syk (DC transduced with shDNA for TREM-2): absence of phosphorylation of DAP12 and Syk
- phosphorylation of DAP12 and Syk (TREM-2 KO DC): not induced
- phosphorylation of DAP12 and Syk (wild type DC): readily induced
